Measurements from PMC11187126, “Structure and dynamics of the pyroglutamylated RF-amide peptide QRFP receptor GPR103” (Nature Communications, 2024).
Read-outs that look alike come from different tables or passages of the source. No end group written: not given here.

Target: T1, GPR103 T102^2.61A (Homo sapiens, UniProt Q96P65, T102A)
T1 construct: we used human full-length QRFPR-encoding plasmids; expressed in transfected cells; host or cells: HEK293 cells, pCAGGS vector
T1 sequence (Q96P65 1-431 T102A): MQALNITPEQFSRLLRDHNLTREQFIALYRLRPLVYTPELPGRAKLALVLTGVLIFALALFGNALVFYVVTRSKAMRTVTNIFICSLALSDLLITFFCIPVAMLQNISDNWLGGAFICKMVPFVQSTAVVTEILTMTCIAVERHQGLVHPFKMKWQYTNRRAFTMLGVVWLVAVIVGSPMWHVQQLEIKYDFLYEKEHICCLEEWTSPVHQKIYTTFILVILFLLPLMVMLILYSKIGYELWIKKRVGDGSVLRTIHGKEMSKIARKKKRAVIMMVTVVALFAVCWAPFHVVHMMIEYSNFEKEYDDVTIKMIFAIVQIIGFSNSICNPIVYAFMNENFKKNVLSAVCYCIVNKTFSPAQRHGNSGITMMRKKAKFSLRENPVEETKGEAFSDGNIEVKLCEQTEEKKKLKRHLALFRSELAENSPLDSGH
Experiment: TGFα shedding assay; Exp. level WT (1:1)
Assay type: cell-based
Description: For the TGFα shedding assay and the flow cytometry analysis, we used human full-length QRFPR-encoding plasmids. Specifically, GPR103 was N-terminally modified with an HA signal sequence followed by a FLAG epitope and then a flexible linker ([…]; the FLAG epitope is underlined) and inserted into the pCAGGS vector. Plasmid encoding GPR103 mutants were generated using Quickchange Site-Directed Mutagensis kit (Agilent).
The TGFα shedding assay was performed as described previously with minor modifications. Plasmid transfection was performed in a 6-well plate with a mixture of 500 ng (per well in a 6-well plate) AP-TGFα-encoding plasmid and 200 ng GPR103-encoding plasmid. After 1-day culture, the transfected cells were harvested by trypsinization, pelleted by centrifugation at 190 × g for 5 min, and washed once with 5 mM HEPES (pH 7.4)-containing Hank’s Balanced Salt Solution (HBSS). After centrifugation, the cells were resuspended in 8 mL of the HEPES-containing HBSS. The cell suspension was seeded in a 96-well culture plate (cell plate) at a volume of 90 μL (per well hereafter) and incubated in a 37 °C incubator with 5% CO2 for 30 min. […] After spinning the cell plates at 190 × g for 2 min, 80 μL of conditioned media was transferred to an empty 96-well plate (conditioned media (CM) plate). Then, 80 μL of AP reaction solution (10 mM p-nitrophenylphosphate (p-NPP), 120 mM Tris-HCl (pH 9.5), 40 mM NaCl, and 10 mM MgCl2) was dispensed into the cell plates and the CM plates. Absorbance at 405 nm of the plates was measured using a microplate reader (SpectraMax 340 PC384, Molecular Devices) before and after 1-h incubation at room temperature. Ligand-induced AP-TGFα release was calculated by subtracting spontaneous AP-TGFα release signal from ligand-induced AP-TGFα release signal. The AP-TGFα release signals were fitted to a four-parameter sigmoidal concentration–response curve, using the Prism 10 software (GraphPad Prism). For each replicate experiment, the pEC50 parameter (negative logarithmic values of EC50 values) of the individual GPR103 mutants were normalized to that of the wild-type GPR103 performed in parallel, and resulting ∆pEC50 values were used to denote ligand response activity of the mutants. […]
Exp. le vel: WT (1:5 0)Exp. le vel: WT (1:5 0)Exp. le vel: WT (1:5 0)Exp. le vel: WT (1:2 0)Exp. le vel: WT (1:2 0)Exp. le vel: WT (1:1 0) […]
L1 4N - t e r mA F2 5N - t e r mA I 2 6N - t e r mA Y 2 9N - t e r mA C 9 82 .5 7A T10 22 .6 1A Exp . l eve l: WT (1 :5)Exp . l evel : >WT (1 :1)Exp. le vel: WT (1:2 0)Exp. le vel: WT (1:2 0)Exp. le vel: WT (1:5 0)Exp . l eve l: WT (1 :1) […]
Exp. le vel: WT (1:1 0)Exp. le vel: WT (1:2 0) C 1 1 83 .2 5AExp. le vel: WT (1:5 0)Exp. le vel: WT (1:5 0)Exp. le vel: WT (1:2 0)Exp . l eve l: WT (1 :5) […]
Exp. le vel: WT (1:5 0)Exp. le vel: WT (1:1 0)Exp. le vel: WT (1:5 0) E203ECL2AExp . l evel : >WT (1 :1)Exp. le vel: WT (1:5 0)Exp. le vel: WT (1:5 0) […]
Exp . l eve l: WT (1 :1) F28Exp. le vel: WT (1:5 0) C 2 8 56 .4 7AExp. le vel: WT (1:2 0) WExp. le vel: WT (1:2 0) F28Exp. le vel: WT (1:5 0)Exp . l evel : >WT (1 :1) […]
Exp. le vel: WT (1:5 0)Exp. le vel: WT (1:5 0) C 3 2 77 .4 8AExp . l eve l: WT (1 :5)Exp . l evel : >WT (1 :1)Exp . l evel : >WT (1 :1) […]
Suppl eme nt ary Figure 1 | Mutational analysis of GPR103. […]
mutants. Data are presented as mean values ± SEM, normally n=3-5; dots), each performed in triplicate. b-d Cell-surface expression (b) and QRFP26-in-duced activation of GPR103 (c, d) were analyzed by the flow cytometry and the TGFα shedding assay, respectively. From the concentration–response curves (a), Emax (c) and ΔpEC50 (d) values relative to the wild type were calculated. Colors in the mutant bars indicate an expression level matching to that of titrated wild type. Statistical analyses were performed using the ordinary one-way ANOVA followed by Dunnett tests with the expression-matched […]

Emax (Exp. #1): 102.50 % WT
Emax (Exp. #2): 94.07 % WT
Emax (Exp. #3): 109.18 % WT
Emax (mean, read-out: Emax): 102%
EC50 (n = 3): 20.4 nM
Emax (n = 3, read-out: Emax): 105 ± 3.6%
Substance: TSGPLGNLAEELNGYSRKKGGFSFRF-NH2 [QRFP26]
